Laboratory results taken from patent US9695155B2, “Herbicidal substituted pyrimidinyloxy benzene compounds” (E. I. DU PONT DE NEMOURS AND COMPANY, priority 2013, dated 2017).

What was measured:
wheat [1] = assay: Test A postemergence; type: in vivo, Triticum aestivum
Description: (§1) Seeds of plant species selected from barnyardgrass (Echinochloa crus-galli), kochia (Kochia scoparia), ragweed (common ragweed, Ambrosia elatior), Italian ryegrass (Lolium multiflorum), large (Lg) crabgrass (Digitaria sanguinalis), giant foxtail (Setaria faberii), morningglory (Ipomoea spp.), pigweed (Amaranthus retroflexus), velvetleaf (Abutilon theophrasti), wheat (Triticum aestivum), and corn (Zea mays) were planted into a blend of loam soil and sand and treated preemergence with a directed soil spray using test chemicals formulated in a non-phytotoxic solvent mixture which included a surfactant.
(§2) At the same time, plants selected from these crop and weed species and also blackgrass (Alopecurus myosuroides), and galium (catchweed bedstraw, Galium aparine) were planted in pots containing the same blend of loam soil and sand and treated with postemergence applications of test chemicals formulated in the same manner. Plants ranged in height from 2 to 10 cm and were in the one- to two-leaf stage for the postemergence treatment. Treated plants and untreated controls were maintained in a greenhouse for approximately 10 days, after which time all treated plants were compared to untreated controls and visually evaluated for injury. Plant response ratings, summarized in Table A, are based on a 0 to 100 scale where 0 is no effect and 100 is complete control. A dash (-) response means no test result.

morningglory [2] = assay: Test A postemergence; type: in vivo, Ipomoea spp.
Description: as §1, §2

large (Lg) crabgrass [3] = assay: Test A preemergence; type: in vivo, Digitaria sanguinalis; details: for Crabgrass, Large plant response rating: 0 to 100 scale, 0 no effect, 100 complete control, approx. 10 days; for Plant response rating, Crabgrass, Large: 125 g ai/ha, 0 to 100 scale where 0 is no effect and 100 is complete control
Description: as §1, §2

barnyardgrass [4] = assay: Test A preemergence; type: in vivo, Echinochloa crus-galli; details: for Barnyardgrass plant response rating: 0 to 100 scale, 0 no effect, 100 complete control, approx. 10 days; for Plant response rating, Barnyardgrass: 125 g ai/ha, 0 to 100 scale where 0 is no effect and 100 is complete control
Description: as §1, §2

wheat [5] = assay: Test A preemergence; type: in vivo, Triticum aestivum; details: for Wheat plant response rating: 0 to 100 scale, 0 no effect, 100 complete control, approx. 10 days; for Plant response rating, Wheat: 125 g ai/ha, 0 to 100 scale where 0 is no effect and 100 is complete control
Description: as §1, §2

corn [6] = assay: Test A postemergence; type: in vivo, Zea mays
Description: as §1, §2

pigweed [7] = assay: Test A preemergence; type: in vivo, Amaranthus retroflexus; details: for Pigweed plant response rating: 0 to 100 scale, 0 no effect, 100 complete control, approx. 10 days; for Plant response rating, Pigweed: 125 g ai/ha, 0 to 100 scale where 0 is no effect and 100 is complete control
Description: as §1, §2

large (Lg) crabgrass [8] = assay: Test A postemergence; type: in vivo, Digitaria sanguinalis
Description: as §1, §2

barnyardgrass [9] = assay: Test A postemergence; type: in vivo, Echinochloa crus-galli
Description: as §1, §2

pigweed [10] = assay: Test A postemergence; type: in vivo, Amaranthus retroflexus
Description: as §1, §2

giant foxtail [11] = assay: Test A preemergence; type: in vivo, Setaria faberii; details: for Foxtail, Giant plant response rating: 0 to 100 scale, 0 no effect, 100 complete control, approx. 10 days; for Plant response rating, Foxtail, Giant: 125 g ai/ha, 0 to 100 scale where 0 is no effect and 100 is complete control
Description: as §1, §2

velvetleaf [12] = assay: Test A postemergence; type: in vivo, Abutilon theophrasti
Description: as §1, §2

velvetleaf [13] = assay: Test A preemergence; type: in vivo, Abutilon theophrasti; details: for Velvetleaf plant response rating: 0 to 100 scale, 0 no effect, 100 complete control, approx. 10 days; for Plant response rating, Velvetleaf: 125 g ai/ha, 0 to 100 scale where 0 is no effect and 100 is complete control
Description: as §1, §2

morningglory [14] = assay: Test A preemergence; type: in vivo, Ipomoea spp.; details: for Morningglory plant response rating: 0 to 100 scale, 0 no effect, 100 complete control, approx. 10 days
Description: as §1, §2

corn [15] = assay: Test A preemergence; type: in vivo, Zea mays; details: for Corn plant response rating: 0 to 100 scale, 0 no effect, 100 complete control, approx. 10 days; for Plant response rating, Corn: 125 g ai/ha, 0 to 100 scale where 0 is no effect and 100 is complete control
Description: as §1, §2

giant foxtail [16] = assay: Test A postemergence; type: in vivo, Setaria faberii
Description: as §1, §2

barnyardgrass [17] = assay: Test B flooded paddy test; type: in vivo, Echinochloa crus-galli; details: Flood, 250 g ai/ha; 0 to 100 scale where 0 is no effect and 100 is complete control
Experimental: (§3) Plant species in the flooded paddy test selected from rice (Oryza sativa), sedge, umbrella (small-flower umbrella sedge, Cyperus difformis), (Heteranthera limosa), and barnyardgrass (Echinochloa crus-galli) were grown to the 2-leaf stage for testing. At time of treatment, test pots were flooded to 3 cm above the soil surface, treated by application of test compounds directly to the paddy water, and then maintained at that water depth for the duration of the test. Treated plants and controls were maintained in a greenhouse for 13 to 15 days, after which time all species were compared to controls and visually evaluated. Plant response ratings, summarized in Table B, are based on a scale of 0 to 100 where 0 is no effect and 100 is complete control. A dash (-) response means no test result.

Heteranthera limosa = assay: Test B flooded paddy test; type: in vivo; details: Flood, 250 g ai/ha; 0 to 100 scale where 0 is no effect and 100 is complete control
Experimental: as §3

sedge, umbrella = assay: Test B flooded paddy test; type: in vivo, Cyperus difformis; details: Flood, 250 g ai/ha; 0 to 100 scale where 0 is no effect and 100 is complete control
Experimental: as §3

rice = assay: Test B flooded paddy test; type: in vivo, Oryza sativa; details: Flood, 250 g ai/ha; 0 to 100 scale where 0 is no effect and 100 is complete control
Experimental: as §3

[18] = 1000 g ai/ha, 0 to 100 scale, 0 no effect, 100 complete control
[19] = 125 g ai/ha, 0 to 100 scale where 0 is no effect and 100 is complete control
[20] = 500 g ai/ha, 0 to 100 scale, 0 no effect, 100 complete control

| SMILES | Plant response rating, Wheat (wheat [1]; [19]) | Plant response rating, Wheat (wheat [1]; [20]) | Plant response rating, Crabgrass, Large (large (Lg) crabgrass [3]) | Crabgrass, Large plant response rating (large (Lg) crabgrass [3]; 500 g ai/ha) | Plant response rating, Barnyardgrass (barnyardgrass [4]) | Barnyardgrass plant response rating (barnyardgrass [4]; 500 g ai/ha) | Plant response rating, Wheat (wheat [5]) | Wheat plant response rating (wheat [5]; 500 g ai/ha) | Plant response rating, Corn (corn [6]; [19]) | Plant response rating, Corn (corn [6]; [20]) | Plant response rating, Pigweed (pigweed [7]) | Pigweed plant response rating (pigweed [7]; 500 g ai/ha) | Plant response rating, Crabgrass, Large (large (Lg) crabgrass [8]; [19]) | Plant response rating, Crabgrass, Large (large (Lg) crabgrass [8]; [20]) | Plant response rating, Barnyardgrass (barnyardgrass [9]; [19]) | Plant response rating, Barnyardgrass (barnyardgrass [9]; [20]) | Plant response rating, Pigweed (pigweed [10]; [19]) | Plant response rating, Pigweed (pigweed [10]; [20]) | Plant response rating, Foxtail, Giant (giant foxtail [11]) | Foxtail, Giant plant response rating (giant foxtail [11]; 500 g ai/ha) | also measured |
| --- | --- | --- | --- | --- | --- | --- | --- | --- | --- | --- | --- | --- | --- | --- | --- | --- | --- | --- | --- | --- | --- |
| Clc1cnc(Oc2ccccc2-n2cc(Cl)nn2)nc1 [Compound 224] |  |  |  |  |  |  |  |  |  |  |  |  |  |  |  |  |  |  |  |  | Plant response rating, Wheat (wheat [1]; [18]): 60; Plant response rating, Morningglory (morningglory [2]; [18]): 100; Crabgrass, Large plant response rating (large (Lg) crabgrass [3]; 1000 g ai/ha): 100; Barnyardgrass plant response rating (barnyardgrass [4]; 1000 g ai/ha): 100; Wheat plant response rating (wheat [5]; 1000 g ai/ha): 60; Plant response rating, Corn (corn [6]; [18]): 50; Pigweed plant response rating (pigweed [7]; 1000 g ai/ha): 100; Plant response rating, Crabgrass, Large (large (Lg) crabgrass [8]; [18]): 80; Plant response rating, Barnyardgrass (barnyardgrass [9]; [18]): 90; Plant response rating, Pigweed (pigweed [10]; [18]): 100; Foxtail, Giant plant response rating (giant foxtail [11]; 1000 g ai/ha): 100; Plant response rating, Velvetleaf (velvetleaf [12]; [18]): 100; Velvetleaf plant response rating (velvetleaf [13]; 1000 g ai/ha): 100; Morningglory plant response rating (morningglory [14]; 1000 g ai/ha): 90; Corn plant response rating (corn [15]; 1000 g ai/ha): 40; Plant response rating, Foxtail, Giant (giant foxtail [16]; [18]): 90 |
| N#Cc1cnn(-c2ccccc2Oc2ncc(Cl)cn2)c1 [Compound 33] | 0 | 90 | 90 | 100 | 0 | 70 | 0 | 0 | 0 | 100 | 100 | 100 | 20 | 80 | 0 | 100 | 100 | 100 | 90 | 100 | Plant response rating, Barnyardgrass (barnyardgrass [17]): 10; Plant response rating, Ducksalad (Heteranthera limosa): 80; Plant response rating, Sedge, Umbrella (sedge, umbrella): 20; Plant response rating, Velvetleaf (velvetleaf [12]; [19]): 100; Plant response rating, Velvetleaf (velvetleaf [12]; [20]): 100; Plant response rating, Velvetleaf (velvetleaf [13]): 50; Velvetleaf plant response rating (velvetleaf [13]; 500 g ai/ha): 100; Plant response rating, Corn (corn [15]): 0; Corn plant response rating (corn [15]; 500 g ai/ha): 0; Plant response rating, Foxtail, Giant (giant foxtail [16]; [19]): 70; Plant response rating, Foxtail, Giant (giant foxtail [16]; [20]): 100; Plant response rating, Rice (rice): 0 |
| COc1cccc(-n2cc(Br)cn2)c1Oc1ncc(Cl)cn1 [Compound 41] | 0 | 0 | 30 | 70 | 10 | 50 | 0 | 0 | 0 | 20 | 70 | 100 | 20 | 70 | 10 | 50 | 50 | 80 | 10 | 80 | Plant response rating, Morningglory (morningglory [2]; [19]): 20; Plant response rating, Morningglory (morningglory [2]; [20]): 30; Plant response rating, Velvetleaf (velvetleaf [12]; [19]): 70; Plant response rating, Velvetleaf (velvetleaf [12]; [20]): 100; Plant response rating, Velvetleaf (velvetleaf [13]): 60; Velvetleaf plant response rating (velvetleaf [13]; 500 g ai/ha): 70; Plant response rating, Morningglory (morningglory [14]; [19]): 0; Morningglory plant response rating (morningglory [14]; 500 g ai/ha): 0; Plant response rating, Corn (corn [15]): 0; Corn plant response rating (corn [15]; 500 g ai/ha): 0; Plant response rating, Foxtail, Giant (giant foxtail [16]; [19]): 20; Plant response rating, Foxtail, Giant (giant foxtail [16]; [20]): 80 |
